Experimental data as given in US6500840B2, “Quinuclidine-substituted heteroaryl moieties for treatment of disease” (Pharmacia & Upjohn Company, priority 2000, dated 2002).
pKi: −log10 of the molar value. Where “and” joins values, the source holds several entries; their conditions need not be identical. Equal entries are not always repeated. Structures can show the parent of a compound that is named as a salt. Where two headings read alike, the source gives them in different places.

Target: α7 nAChR (Rattus norvegicus, UniProt Q05941)
Assay: [3H]-MLA competition binding assay, rat brain membranes
[1] = Ki, inhibition of [3H]-MLA binding (3.0 to 4.0 nM), Sprague-Dawley rat whole brain minus cerebellum homogenate, 1 hour at 25° C

α7 nAChR, sequence (Q05941 23-502): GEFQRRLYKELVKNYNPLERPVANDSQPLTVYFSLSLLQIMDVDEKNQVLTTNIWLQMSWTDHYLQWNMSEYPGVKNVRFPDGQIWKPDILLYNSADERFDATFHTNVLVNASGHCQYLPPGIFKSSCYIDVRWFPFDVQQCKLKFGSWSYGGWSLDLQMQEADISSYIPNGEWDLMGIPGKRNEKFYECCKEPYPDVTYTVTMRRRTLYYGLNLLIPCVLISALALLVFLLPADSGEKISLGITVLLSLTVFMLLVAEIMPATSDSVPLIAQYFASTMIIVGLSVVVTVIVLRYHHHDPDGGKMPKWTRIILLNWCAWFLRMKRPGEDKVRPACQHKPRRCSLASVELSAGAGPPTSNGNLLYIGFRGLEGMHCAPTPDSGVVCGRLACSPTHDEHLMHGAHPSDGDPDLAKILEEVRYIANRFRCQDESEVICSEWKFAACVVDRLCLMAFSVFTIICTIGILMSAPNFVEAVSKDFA
Method: Membrane Preparation. Male Sprague-Dawley rats (300-350 g) are sacrificed by decapitation and the brains (whole brain minus cerebellum) are dissected quickly, weighed and homogenized in 9 volumes/g wet weight of ice-cold 0.32 M sucrose using a rotating pestle on setting 50 (10 up and down strokes). The homogenate is centrifuged at 1,000×g for 10 minutes at 4° C. The supernatant is collected and centrifuged at 20,000×g for 20 minutes at 4° C. The resulting pellet is resuspended to a protein concentration of 1-8 mg/mL. Aliquots of 5 mL homogenate are frozen at −80° C. until needed for the assay.
Binding Assay. […] Filters are pre-soaked in 50 mm Tris HCl pH 7.0-0.05% polyethylenimine. The filters are rapidly washed two times with 5 mL aliquots of cold 0.9% saline and then counted for radioactivity by liquid
Data Analysis. […] Hill coefficients were obtained using non-linear regression (GraphPad Prism sigmoidal dose-response with variable slope).

## O=C(N[C@H]1CN2CCC1CC2)c1ccc(-c2cccc(Cl)c2)o1 [Example 105, N-[(3R)-1-azabicyclo[2.2.2]oct-3-yl]-5-(3-chlorophenyl)-furan-2-carboxamide toluene sulfonate]
[1]
  pKi: 7.05

## O=C(N[C@H]1CN2CCC1CC2)c1ncc(-c2ccccc2Cl)s1 [Example 94, N-[(3R)-1-azabicyclo[2.2.2]oct-3-yl]-5-(2-chlorophenyl)-1,3-thiazole-2-carboxamide 4-methylbenzenesulfonate]
[1]
  pKi: 6.90

## COc1ccccc1-c1cnc(C(=O)N[C@H]2CN3CCC2CC3)s1 [Example 96, N-[(3R)-1-azabicyclo[2.2.2]oct-3-yl]-5-(2-methoxyphenyl)-1,3-thiazole-2-carboxamide 4-methylbenzenesulfonate]
[1]
  pKi: 6.96 to 7.02

## O=C(N[C@H]1CN2CCC1CC2)c1ccc(-c2ccccc2OC(F)(F)F)o1 [Example 138, N-[(3R)-1-azabicyclo[2.2.2]oct-3-yl]-5-[2-(trifluoromethoxy)phenyl]-furan-2-carboxamide 4-methylbenzenesulfonate]
[1]
  pKi: 6.23 to 6.28

## O=C(N[C@H]1CN2CCC1CC2)c1ncc(-c2cccc([N+](=O)[O-])c2)s1 [Example 92, N-[(3R)-1-azabicyclo[2.2.2]oct-3-yl]-5-(3-nitrophenyl)-1,3-thiazole-2-carboxamide 4-medhylbenzenesulfonate]
[1]
  pKi: 6.43 to 6.72

## O=C(N[C@H]1CN2CCC1CC2)c1ccc(-c2cccc(Cl)c2)s1 [Example 3, N-[(3R)-1-azabicyclo[2.2.2]oct-3-yl]-5-(3-chlorophenyl)-thiophene-2-carboxamide hydrochloride]
[1]
  pKi: 6.80 to 7.02

## Cc1cc(C(=O)N[C@H]2CN3CCC2CC3)oc1C [Example 128, N-[(3R)-1-azabicyclo[2.2.2]oct-3-yl]-4,5-dimethyl-furan-2-carboxamide hydrochloride]
[1]
  pKi: 8.15 to 8.22

## O=C(N[C@H]1CN2CCC1CC2)c1cnc(-c2ccccc2)s1 [Example 50, N-[(3R)-1-Azabicyclo[2.2.2]oct-3-yl]-2-phenyl-1,3-thiazole-5-carboxamide Fumarate]
[1]
  pKi: 6.25 to 7.17

## O=C(N[C@H]1CN2CCC1CC2)c1ccc(-c2ccsc2)s1 [Example 5, N-[(3R)-1-azabicyclo[2.2.2]oct-3-yl]-2,3′-bithiophene-5-carboxamide hydrochloride]
[1]
  pKi: 7.82 to 8.05

## O=C(N[C@H]1CN2CCC1CC2)c1ccc(Sc2ccc(Cl)cc2)s1 [Example 33, N-[(3R)-1-Azabicyclo[2.2.2]oct-3-yl]-5-(4-chlorophenylsulfanyl)-thiophene-2-carboxamide]
[1]
  pKi: 7.57

## O=C(N[C@H]1CN2CCC1CC2)c1ccc(-c2cccc(OCc3ccccc3)c2)s1 [Example 9, N-[(3R)-1-azabicyclo[2.2.2]oct-3-yl]-5-(3-benzyloxyphenyl)-thiophene-2-carboxamide hydrochloride]
[1]
  pKi: 6.24 to 6.27

## Cc1ccc(-c2ccc(C(=O)N[C@H]3CN4CCC3CC4)s2)s1 [Example 14, N-[(3R)-1-Azabicyclo[2.2.2]oct-3-yl]-5′-methyl-2,2′-bithiophene-5-carboxamide Hydrochloride]
[1]
  pKi: 7.80 to 7.92

## O=C(N[C@H]1CN2CCC1CC2)c1ccc(-c2cccc(C(F)(F)F)c2)o1 [Example 109, N-[(3R)-1-azabicyclo[2.2.2]oct-3-yl]-5-[3-(trifluoromethyl)-phenyl]-furan-2-carboxamide fumarate]
[1]
  pKi: 8.22 to 8.82

## O=C(N[C@H]1CN2CCC1CC2)c1ccc(-c2cccc([N+](=O)[O-])c2)s1 [Example 7, N-[(3R)-1-azabicyclo[2.2.2]oct-3-yl]-5-(3-nitrophenyl)-thiophene-2-carboxamide]
[1]
  pKi: 7.52 to 7.60

## O=C(N[C@H]1CN2CCC1CC2)c1ccc(-c2ccccc2)o1 [Example 103, N-[(3R)-1-Azabicyclo[2.2.2]oct-3-yl]-5-phenyl-furan-2-carboxamide 4-Methylbenzenesulfonate]
[1]
  pKi: 7.30 to 7.77

## O=C(N[C@H]1CN2CCC1CC2)c1ccc(-c2ccccc2F)o1 [Example 113, N-[(3R)-1-azabicyclo[2.2.2]oct-3-yl]-5-(2-fluorophenyl)-furan-2-carboxamide 4-methylbenzenesulfonate]
[1]
  pKi: 6.90 to 7.05

## O=C(N[C@H]1CN2CCC1CC2)c1ccc(Oc2ccccc2)o1 [Example 151, N-[(3R)-1-Azabicyclo[2.2.2]oct-3-yl]-5-phenoxy-furan-2-carboxamide 4-Methylbenzenesulfonate]
[1]
  pKi: 6.08 to 6.65

## O=C(N[C@H]1CN2CCC1CC2)c1ccc(C#Cc2ccccc2)o1 [Example 150, N-[(3R)-1-Azabicyclo[2.2.2]oct-3-yl]-5-(phenylethynyl)-furan-2-carboxamide 4-Methylbenzenesulfonate]
[1]
  pKi: 6.48 to 6.54

## O=C(N[C@H]1CN2CCC1CC2)c1ccc(Sc2ccc(F)c(Cl)c2)s1 [Example 36, N-[(3R)-1-azabicyclo[2.2.2]oct-3-yl]-5-(3-chloro-4-fluorophenylsulfanyl)-thiophene-2-carboxamide]
  pKi: 6.94 to 6.96

## O=C(N[C@H]1CN2CCC1CC2)c1ccc(-c2ccccc2[N+](=O)[O-])o1 [Example 110, N-[(3R)-1-azabicyclo[2.2.2]oct-3-yl]-5-(2-nitrophenyl)-furan-2-carboxamide 4-methylbenzenesulfonate]
[1]
  pKi: 6.72 to 8.40

## O=C(N[C@H]1CN2CCC1CC2)c1ccc(-c2ccccc2Cl)o1 [Example 104, N-((3R)-1-azabicyclo[2.2.2]oct-3-yl]-5-(2-chlorophenyl)-furan-2-carboxamide toluene sulfonate]
[1]
  pKi: 6.89 to 7.70 and 7.12

## COc1ccc(C(=O)N[C@H]2CN3CCC2CC3)s1 [Example 19, N-[(3R)-1-Azabicyclo[2.2.2]oct-3-yl]-5-methoxy-thiophene-2-carboxamide Hydrochloride]
[1]
  pKi: 7.62

## O=C(N[C@H]1CN2CCC1CC2)c1ccc(-c2cccs2)s1 [Example 21]
[1]
  pKi: 8.70 to 9.00

## O=C(N[C@H]1CN2CCC1CC2)c1ncc(-c2ccccc2[N+](=O)[O-])o1 [Example 83, N-[(3R)-1-azabicyclo[2.2.2]oct-3-yl]-5-(2-nitrophenyl)-1,3-oxazole-2-carboxamide 4-methylbenzenesulfonate]
[1]
  pKi: 8.52 to 8.70

## O=C(N[C@H]1CN2CCC1CC2)c1ccc(-c2ccc(F)c(F)c2)o1 [Example 132, N-[(3R)-1-azabicyclo[2.2.2]oct-3-yl]-5-(3,4-difluorophenyl)-furan-2-carboxamide hydrochloride]
[1]
  pKi: 5.68 to 6.06

## O=C(N[C@H]1CN2CCC1CC2)c1ccc(-c2ccc(Cl)cc2)o1 [Example 106, N-[(3R)-1-azabicyclo[2.2.2]oct-3-yl]-5-(4-chlorophenyl)-furan-2-carboxamide fumarate]
[1]
  pKi: 6.72 to 7.82 and 6.96 to 7.66

## Cc1ccc(-c2ccc(C(=O)N[C@H]3CN4CCC3CC4)o2)c([N+](=O)[O-])c1 [Example 130, N-[(3R)-1-azabicyclo[2.2.2]oct-3-yl]-5-(4-methyl-2-nitrophenyl)-furan-2-carboxamide hydrochloride]
[1]
  pKi: 6.25 to 6.38 and 6.39 to 6.48

## O=C(N[C@H]1CN2CCC1CC2)c1ccc(Sc2ccccc2)s1 [Example 27, N-[(3R)-1-azabicyclo[2.2.2]oct-3-yl]-5-(phenylsulfanyl)-thiophene-2-carboxamide]
[1]
  pKi: 6.80 to 7.46

## O=C(N[C@H]1CN2CCC1CC2)c1ccc(-c2cccc(OC(F)(F)F)c2)o1 [Example 120, N-[(3R)-1-azabicyclo[2.2.2]oct-3-yl]-5-[3-(trifluoromethoxy)phenyl]-furan-2-carboxamide 4-methylbenzenesulfonate]
[1]
  pKi: 5.98
